Data on 20 compounds can be found in US10138207B2, “Benzomorphan analogs and the use thereof” (priority 2012, dated 2018).

In assay [1] the target is T1, κ opioid receptor (Homo sapiens, UniProt P41145). As to the kind of experiment: κ-opioid receptor [35S]GTPγS functional assay, HEK-293 or CHO cells. The class given is biochemical. Details: expressed in transfected cells; host or cells: U-2 OS (in-house membranes). The conditions noted are these: HEK-293 or CHO cells; for EC50: read-out: GTPγS κ EC50; for Emax: relative to U69,593. The protocol: Membranes from recombinant HEK-293 cells, CHO or U-2 OS cells expressing the recombinant human κ opioid receptor (κ) were prepared by lysing cells in ice cold hypotonic buffer (2.5 mM MgCl2, 50 mM HEPES, pH 7.4) (10 mL/10 cm dish) followed by homogenization with a tissue grinder/Teflon pestle. Membranes from a cell line naturally expressing kappa opioid receptors can also be used. Membranes were collected by centrifugation at 30,000×g for 15 min at 4° C. and pellets were resuspended in hypotonic buffer to a final concentration of 1-3 mg/mL. Protein concentrations were determined using the BioRad protein assay reagent with bovine serum albumen as standard. Aliquots of κ receptor membranes were stored at −80° C.
Plates were incubated for 30 min at a temperature of about 25° C. with shaking.
In general terms: Binding of GTPγS marks nucleotide exchange on a G protein.

Assay [2] addresses T1, κ opioid receptor. As to the kind of experiment: biochemical. The class given is binding. More on the design: expressed in transfected cells; host or cells: HEK 293 (in-house membrane prep). The settings on record: HEK-293 or CHO cells.
For assay [3], the target named is T2, μ-opioid receptor (Homo sapiens, UniProt P35372). The experiment in a line: μ-opioid receptor [35S]GTPγS functional assay, U-2 OS cells. The assay is classed as biochemical. Details: expressed in transfected cells; host or cells: U-2 OS. The conditions noted are these: U-2 OS cells; for EC50: read-out: GTPγS μ EC50; for Emax: relative to DAMGO, read-out: GTPγS μ Emax.

In assay [4] the target is T2, μ-opioid receptor. The experiment in a line: μ-opioid receptor [35S]GTPγS functional assay, HEK-293 or CHO cells. The settings on record: for Emax: read-out: GTPγS μ Emax.
For assay [5], the target named is T1, κ opioid receptor. The experiment in a line: κ-opioid receptor [35S]GTPγS functional assay, U-2 OS cells. The assay is classed as biochemical. The settings on record: U-2 OS cells. More on the design: expressed in transfected cells; host or cells: U-2 OS (in-house membranes).
Procedure: Membranes from recombinant HEK-293 cells, CHO or U-2 OS cells expressing the recombinant human κ opioid receptor (κ) were prepared by lysing cells in ice cold hypotonic buffer (2.5 mM MgCl2, 50 mM HEPES, pH 7.4) (10 mL/10 cm dish) followed by homogenization with a tissue grinder/Teflon pestle. […] Membranes were collected by centrifugation at 30,000×g for 15 min at 4° C. and pellets were resuspended in hypotonic buffer to a final concentration of 1-3 mg/mL. Protein concentrations were determined using the BioRad protein assay reagent with bovine serum albumen as standard. Aliquots of κ receptor membranes were stored at −80° C.

T2 sequence (P35372 whole entry, species assumed): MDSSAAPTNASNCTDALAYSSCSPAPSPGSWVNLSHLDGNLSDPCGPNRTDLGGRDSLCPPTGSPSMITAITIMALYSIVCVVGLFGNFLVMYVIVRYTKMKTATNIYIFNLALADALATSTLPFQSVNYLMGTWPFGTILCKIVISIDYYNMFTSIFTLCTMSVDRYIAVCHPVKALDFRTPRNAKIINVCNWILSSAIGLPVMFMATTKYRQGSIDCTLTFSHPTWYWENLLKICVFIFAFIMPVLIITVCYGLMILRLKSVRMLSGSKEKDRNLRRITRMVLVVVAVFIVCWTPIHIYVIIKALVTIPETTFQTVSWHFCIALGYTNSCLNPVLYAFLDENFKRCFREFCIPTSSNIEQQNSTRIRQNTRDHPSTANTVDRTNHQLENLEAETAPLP
T1 sequence (P41145 whole entry): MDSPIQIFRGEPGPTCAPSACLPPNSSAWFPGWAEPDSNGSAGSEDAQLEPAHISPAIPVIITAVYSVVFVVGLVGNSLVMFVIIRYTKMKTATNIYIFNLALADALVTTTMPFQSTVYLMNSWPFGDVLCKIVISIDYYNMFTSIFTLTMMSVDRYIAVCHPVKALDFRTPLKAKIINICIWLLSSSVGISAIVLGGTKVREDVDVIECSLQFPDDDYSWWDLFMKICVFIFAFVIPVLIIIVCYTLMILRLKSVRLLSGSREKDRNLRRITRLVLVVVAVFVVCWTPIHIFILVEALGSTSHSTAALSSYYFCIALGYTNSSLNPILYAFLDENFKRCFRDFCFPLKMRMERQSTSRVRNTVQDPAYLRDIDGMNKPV

As to `CN1CC[C@]2(C)c3cc(O)ccc3CC1C2N(C)C(=O)/C=C/c1ccoc1` (stereo in doubt) [Compound 24, (E)-3-(furan-3-yl)-N-((2R,6R,11S)-8-hydroxy-3,6-dimethyl-1,2,3,4,5,6-hexahydro-2,6-methanobenzo[d]azocin-11-yl)-N-methylacrylamide], at κ opioid receptor [1], the EC50 is 0.178 ± 0.0251 µM and the Emax came out at 30.7 ± 2.6%. Moreover, at κ opioid receptor [2], the Ki was 0.00117 ± 9e-05 µM.

In the case of `CCN(C(=O)/C=C/c1ccoc1)C1C2Cc3ccc(OC)cc3[C@@]1(C)CCN2C` (stereo in doubt) [Compound 25, (E)-N-ethyl-3-(furan-3-yl)-N-((2R,6R,11S)-8-methoxy-3,6-dimethyl-1,2,3,4,5,6-hexahydro-2,6-methanobenzo[d]azocin-11-yl)acrylamide], the EC50 on μ-opioid receptor [3] was 49.8 ± 12.1 nM; at κ opioid receptor [1] (bound in μM), more than 20 µM. Besides, the Emax on μ-opioid receptor [3] was 102 ± 1.67%; at κ opioid receptor [1], -1%. The affinity at κ opioid receptor [2] corresponds to a Ki of 0.147 ± 0.0184 µM.

In the case of `CN1CC[C@]2(C)c3cc(O)ccc3CC1C2N(C)C(=O)Cc1ccc(S(C)(=O)=O)cc1` (stereo in doubt) [Compound 27, N-((2R,6R,11S)-8-hydroxy-3,6-dimethyl-1,2,3,4,5,6-hexahydro-2,6-methanobenzo[d]azocin-11-yl)-N-methyl-2-(4-(methylsulfonyl)phenyl)acetamide], on μ-opioid receptor [3], the EC50 amounted to 1.51 ± 0.24 nM and the Emax was found to be 103 ± 2.33%. For the same compound, at κ opioid receptor [1] (bound in μM), the EC50 is more than 20 µM. Besides, at κ opioid receptor [2], affinity was put at a Ki of 0.0352 ± 0.00938 µM.

As to `CN1CC[C@]2(C)c3cc(O)ccc3CC1C2N(C)CCc1ccccc1` (stereo in doubt) [Compound 29, (2R,6R,11S)-3,6-dimethyl-11-(methyl(phenethyl)amino)-1,2,3,4,5,6-hexahydro-2,6-methanobenzo[d]azocin-8-ol], on μ-opioid receptor [3], the EC50 is 0.044 nM and the Emax stood at 100 ± 1.45%. In addition, on κ opioid receptor [1], the EC50 is 0.233 ± 0.0749 µM and the Emax was 28.2 ± 4.66%. At κ opioid receptor [2], this compound had a Ki of 0.0301 ± 0.0118 µM.

Turning to `COc1ccc2c(c1)C1(C)CCN(CCC(C(=O)N(C)C)(c3ccccc3)c3ccccc3)C(C2)C1(O)O` (stereo not drawn) [Compound 7, 4-(11,11-dihydroxy-8-methoxy-6-methyl-1,2,5,6-tetrahydro-2,6-methanobenzo[d]azocin-3(4H)-yl)-N,N-dimethyl-2,2-diphenylbutanamide], at κ opioid receptor [1] (bound in μM), the concentration giving a half-maximal response (EC50) is more than 20 µM. For the same compound, the Emax on κ opioid receptor [1] was -0.33 ± 0.67%. The Ki at κ opioid receptor [2] is 0.279 ± 0.0398 µM.

As for `COc1ccc2c(c1)[C@@]1(C)CCN(C)C(C2)[C@@H]1N(C)C(=O)/C=C/c1ccoc1` [Compound 16, (E)-3-(furan-3-yl)-N-((6R,11R)-8-methoxy-3,6-dimethyl-1,2,3,4,5,6-hexahydro-2,6-methanobenzo[d]azocin-11-yl)-N-methylacrylamide], on κ opioid receptor [1], the EC50 was determined as 1.05 ± 0.262 µM and the Emax was 15 ± 1.53%. Also, on κ opioid receptor [2], the inhibition constant (Ki) worked out at 0.186 ± 0.034 µM.

Consider `COc1ccc2c(c1)[C@@]1(C)CCN(CCC(C(=O)N(C)C)(c3ccccc3)c3ccccc3)C(C2)[C@H]1O` [Compound 17, 4-((6R,11S)-11-hydroxy-8-methoxy-6-methyl-1,2,5,6-tetrahydro-2,6-methanobenzo[d]azocin-3(4H)-yl)-N,N-dimethyl-2,2-diphenylbutanamide], for which, at κ opioid receptor [1] (bound in μM), the 50% effective concentration (EC50) is more than 20 µM. On κ opioid receptor [2], this compound returned a Ki of 0.0899 ± 0.0147 µM.

For `CN1CC[C@]2(C)c3cc(O)ccc3CC1[C@@H]2CC(=O)Nc1ccc(C(=O)O)cc1` [Compound 32, 4-(2-((6S,11R)-8-hydroxy-3,6-dimethyl-1,2,3,4,5,6-hexahydro-2,6-methanobenzo[d]azocin-11-yl)acetamido)benzoic acid], on μ-opioid receptor [3], the EC50 was found to be 233 ± 58.2 nM and the Emax turned out to be 39.8 ± 2.46%. Also, on μ-opioid receptor [4], a half-maximal effect (EC50) was put at 336 ± 92.8 nM and the Emax was determined as 23 ± 1.53%. Moreover, the Ki at κ opioid receptor [2] is 12.7 ± 2.09 µM.

With `COc1ccc2c(c1)[C@@]1(C)CCN(C)C(C2)[C@@]1(O)c1cccc(C#N)c1` [Compound 60, 3-((6R,11R)-11-hydroxy-8-methoxy-3,6-dimethyl-1,2,3,4,5,6-hexahydro-2,6-methanobenzo[d]azocin-11-yl)benzonitrile], on μ-opioid receptor [4], a half-maximal response (EC50) required 6090 ± 529 nM and the Emax worked out at 38.3 ± 0.88%. The Ki at κ opioid receptor [2] (bound in μM) was more than 20 µM.

`COc1ccc2c(c1)[C@@]1(C)CCN(C)C(C2)[C@@H]1c1cccc(OCc2ccccc2)c1` [Compound 61, (6S,11R)-11-(3-(benzyloxy)phenyl)-8-methoxy-3,6-dimethyl-1,2,3,4,5,6-hexahydro-2,6-methanobenzo[d]azocine]: at μ-opioid receptor [4], the EC50 stood at 5760 ± 1550 nM and the Emax was determined as 26.7 ± 0.88%. The same compound returned a Ki on κ opioid receptor [2] of 2.77 ± 0.85 µM.

For the compound `COC(=O)c1cccc([C@]2(O)C3Cc4ccc(OC)cc4[C@@]2(C)CCN3C)c1` [Compound 62, methyl 3-((6R,11R)-11-hydroxy-8-methoxy-3,6-dimethyl-1,2,3,4,5,6-hexahydro-2,6-methanobenzo[d]azocin-11-yl)benzoate], at μ-opioid receptor [4], the response was half-maximal at 7450 ± 470 nM (EC50) and the Emax stood at 24 ± 2.97%. At κ opioid receptor [2] (bound in μM), this compound yielded a Ki of more than 20 µM.

Regarding `COC(=O)c1cccc([C@@]2(O)C3Cc4ccc(OC)cc4[C@@]2(C)CCN3C)c1` [Compound 64, methyl 3-((6R,11S)-11-hydroxy-8-methoxy-3,6-dimethyl-1,2,3,4,5,6-hexahydro-2,6-methanobenzo[d]azocin-11-yl)benzoate], the EC50 on μ-opioid receptor [4] was more than 20000 nM. This compound came in with a Ki at κ opioid receptor [2] of 12.4 µM.

As for `COc1ccc2c(c1)[C@@]1(C)CCN(C)C(C2)[C@@]1(O)c1cccc(-c2nnn[nH]2)c1` [Compound 65, (6R,11R)-11-(3-(1H-tetrazol-5-yl)phenyl)-8-methoxy-3,6-dimethyl-1,2,3,4,5,6-hexahydro-2,6-methanobenzo[d]azocin-11-ol], at μ-opioid receptor [4], the EC50 is 5060 ± 1150 nM and the Emax came out at 21.7 ± 2.85%. The compound also had a Ki at κ opioid receptor [2] (bound in μM) of more than 20 µM.

Regarding `COc1ccc2c(c1)[C@@]1(C)CCN(C)C(C2)[C@]1(O)c1cccc(-c2nnn[nH]2)c1` [Compound 66, (6R,11S)-11-(3-(1H-tetrazol-5-yl)phenyl)-8-methoxy-3,6-dimethyl-1,2,3,4,5,6-hexahydro-2,6-methanobenzo[d]azocin-11-ol], on μ-opioid receptor [4], a half-maximal effect (EC50) was put at 6610 ± 199 nM and the Emax was found to be 20.7 ± 1.33%. Moreover, at κ opioid receptor [2] (bound in μM), the Ki was more than 20 µM.

As for `COc1ccc2c(c1)[C@@]1(C)CCN(C)C(C2)[C@@]1(O)c1cccc(C(N)=O)c1` [Compound 67, 3-((6R,11R)-11-hydroxy-8-methoxy-3,6-dimethyl-1,2,3,4,5,6-hexahydro-2,6-methanobenzo[d]azocin-11-yl)benzamide], the EC50 on μ-opioid receptor [4] was more than 20000 nM. The same compound returned an inhibitory constant (Ki) on κ opioid receptor [2] (bound in μM) of more than 20 µM.

On to `COc1ccc2c(c1)[C@@]1(C)CCN(C)C(C2)C1N1CCCC1` (stereo partly drawn) [Compound 69, (6R)-8-methoxy-3,6-dimethyl-11-(pyrrolidin-1-yl)-1,2,3,4,5,6-hexahydro-2,6-methanobenzo[d]azocine], for which, at μ-opioid receptor [4], the concentration giving a half-maximal response (EC50) is more than 20000 nM and the Emax was 24.3 ± 2.96%. For the same compound, the Ki on κ opioid receptor [2] is 19.8 µM.

Take `COc1ccc2c(c1)[C@@]1(C)CCN(C)C(C2)[C@]1(O)c1cccc(C(=O)O)c1` [Compound 71, 3-((6R,11S)-11-hydroxy-8-methoxy-3,6-dimethyl-1,2,3,4,5,6-hexahydro-2,6-methanobenzo[d]azocin-11-yl)benzoic acid]: on μ-opioid receptor [4], the response was half-maximal at 13000 ± 1140 nM (EC50) and the Emax amounted to 23 ± 4.58%. This compound also gave a Ki at κ opioid receptor [2] (bound in μM) of more than 20 µM.

Take `CN1CC[C@]2(C)c3cc(O)ccc3CC1[C@@H]2CC(=O)N1CCC(C(=O)O)CC1` [Compound 72, 1-(2-((6S,11R)-8-hydroxy-3,6-dimethyl-1,2,3,4,5,6-hexahydro-2,6-methanobenzo[d]azocin-11-yl)acetyl)piperidine-4-carboxylic acid]: at μ-opioid receptor [4], the EC50 was determined as 4890 ± 508 nM and the Emax came out at 70.3 ± 8.33%. The Ki at κ opioid receptor [2] is 14.8 µM.

With `COc1ccc2c(c1)[C@@]1(C)CCN(CC3CC3)[C@H](C2)[C@H]1N(C)CC(=O)O` [Compound 73, 2-(((2R,6R,11S)-3-(cyclopropylmethyl)-8-methoxy-6-methyl-1,2,3,4,5,6-hexahydro-2,6-methanobenzo[d]azocin-11-yl)(methyl)amino)acetic acid], on μ-opioid receptor [4], the 50% effective concentration (EC50) amounted to 18100 ± 2720 nM and the Emax turned out to be 25 ± 2.52%. On κ opioid receptor [2] (bound in μM), this compound displayed a Ki of more than 20 µM.

With `C[C@]12CCN(CC3CC3)[C@H](Cc3ccc(O)cc31)[C@H]2NS(=O)(=O)c1cccc(C(F)(F)F)c1` [Compound 128, N-((2R,6S,11S)-3-(cyclopropylmethyl)-8-hydroxy-6-methyl-1,2,3,4,5,6-hexahydro-2,6-methanobenzo[d]azocin-11-yl)-3-(trifluoromethyl)benzenesulfonamide], the EC50 on μ-opioid receptor [3] stood at 0.18 ± 0.069 nM; at μ-opioid receptor [4] it was 7.67 ± 0.79 nM; at κ opioid receptor [1], 0.00035 ± 0.00015 µM; at κ opioid receptor [5] (read-out: GTPγS κ EC50), 0.74 ± 0.13 nM. Besides, the Emax at μ-opioid receptor [3] was found to be 47.8 ± 1.25%; on μ-opioid receptor [4] it was 53.5 ± 3.52%; on κ opioid receptor [1], 40.3 ± 2.19%; at κ opioid receptor [5] (relative to U69,593, read-out: GTPγS κ Emax) it was 90.7 ± 1.45%.

By EC50 is commonly meant the concentration giving half of the maximal effect. Usually Emax stands for the greatest response seen or fitted, relative to the assay's reference. Usually Ki stands for the equilibrium dissociation constant of an inhibitor or competing ligand from its target.
